Results from patent US20240287138A1, “CYCLIC PEPTIDES FOR INHIBITING TNF RECEPTOR 1 ACTIVITY” (Merck Sharp & Dohme LLC, priority 2023, published 2024).
Like-named read-outs stand apart in the source and are kept apart here. Numbered stars: 1 amine (or outer) side, 2 acyl side, 3 side chain; on linkers, the order of the positions; unused ones are H or OH. Square brackets hold non-standard residues; d marks the D form. Peptide text beside a SMILES is read from it. Trp(βS-Me,7-OMe) = COc1cccc2c([C@H](C)[C@H](N)C(=O)O)c[nH]c12; Trp(1-CH2COOH) = N[C@@H](Cc1cn(CC(=O)O)c2ccccc12)C(=O)O; Phe(4-SO2NH2) = N[C@@H](Cc1ccc(S(N)(=O)=O)cc1)C(=O)O; Phe(2-F,4-COOH) = N[C@@H](Cc1ccc(C(=O)O)cc1F)C(=O)O; dPro(trans-4-NMe2) = CN(C)[C@@H]1CN[C@@H](C(=O)O)C1; Trp(7-CN) = N#Cc1cccc2c(C[C@H](N)C(=O)O)c[nH]c12; Trp(7-Cl) = N[C@@H](Cc1c[nH]c2c(Cl)cccc12)C(=O)O; Ala(pyrimidin-5-yl) = N[C@@H](Cc1cncnc1)C(=O)O; Phe(3-CONH2) = NC(=O)c1cccc(C[C@H](N)C(=O)O)c1; Phe(4-CONH2) = NC(=O)c1ccc(C[C@H](N)C(=O)O)cc1; Phe(4-COOH) = N[C@@H](Cc1ccc(C(=O)O)cc1)C(=O)O; 4Pal(3S-Me) = C[C@@H](c1ccncc1)[C@H](N)C(=O)O; Trp(7-aza) = N[C@@H](Cc1c[nH]c2ncccc12)C(=O)O; Pip(5R-OH) = O=C(O)[C@@H]1CC[C@@H](O)CN1; X1 = O=C([C@@H]1CC[C@H](N[*:1])C1)[*:2]; 4Pal = N[C@@H](Cc1ccncc1)C(=O)O; Abu(4-CN) = N#CCC[C@H](N)C(=O)O; dHyp = O=C(O)[C@H]1C[C@H](O)CN1; Cit = NC(=O)NCCC[C@H](N)C(=O)O; Ahp(2) = CCCCC[C@H](N)C(=O)O; αMeS = C[C@](N)(CO)C(=O)O; Nle = CCCC[C@H](N)C(=O)O; Sar = CNCC(=O)O

Columns and labels:
[1] = molecular target: T1, human soluble TNFR1 (sTNFR1) (Homo sapiens, UniProt P19438); experiment: Human sTNFR1-peptide displacement assay (LanthaScreen Eu TR-FRET binding assay)
T1 construct: made in house; host or cells: Sf21 (baculovirus)
T1 sequence (P19438 with tags, fused parts or gaps): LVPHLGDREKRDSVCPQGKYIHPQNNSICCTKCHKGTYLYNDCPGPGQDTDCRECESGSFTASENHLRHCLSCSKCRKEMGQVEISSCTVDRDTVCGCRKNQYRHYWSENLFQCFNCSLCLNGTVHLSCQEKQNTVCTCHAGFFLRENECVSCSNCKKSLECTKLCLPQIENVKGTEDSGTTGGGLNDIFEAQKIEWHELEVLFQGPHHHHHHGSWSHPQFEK
Procedure, shortened: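 Readout is the 665/615 nm TR-FRET ratio (Eu anti-His donor, streptavidin-Alexa647 acceptor), normalized to DMSO and saturating displacer, fit by Morrison-based five-parameter logistic for Kd^app. His-tagged sTNFR1 (1-211) prebound to 100 nM biotinylated peptide SEQ ID NO.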

[2] = molecular target: T2, TNFα-induced NF-κB signal transduction pathway (TNFR1 signaling) in THP-1 cells (Homo sapiens, UniProt P19438); experiment: THP-1 Lucia NF-κB reporter cell assay, inhibition of TNFα-induced NF-κB signaling; type: cell-based; conditions: THP-1 NF-κB Lucia reporter cells, 10 ng/mL TNFα, 16-18 h, secreted luciferase; read-out: THP-1 IC50
T2 sequence (P19438 30-455): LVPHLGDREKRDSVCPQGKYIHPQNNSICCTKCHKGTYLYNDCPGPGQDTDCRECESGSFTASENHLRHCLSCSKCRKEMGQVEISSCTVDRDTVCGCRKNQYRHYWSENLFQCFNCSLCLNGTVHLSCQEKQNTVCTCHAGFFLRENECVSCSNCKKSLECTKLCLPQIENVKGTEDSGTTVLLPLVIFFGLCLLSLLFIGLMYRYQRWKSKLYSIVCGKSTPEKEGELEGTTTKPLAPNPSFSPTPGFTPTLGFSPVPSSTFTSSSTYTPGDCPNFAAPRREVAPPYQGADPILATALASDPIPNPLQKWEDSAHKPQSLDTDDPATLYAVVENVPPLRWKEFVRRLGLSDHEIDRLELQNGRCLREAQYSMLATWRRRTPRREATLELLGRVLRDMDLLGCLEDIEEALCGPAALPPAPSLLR
Procedure, shortened: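 Read-out: secreted Lucia luciferase luminescence (QUANTI-Luc) from supernatant after 16-18 h, 37 °C, 10 ng/mL rhTNFα. Peptide pretreatment 1 h at 37 °C; 20,000 cells/well, selection antibiotics omitted. IC50 via 4-parameter logistic model against min/max controls.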

| Structure (SMILES) | Kd [1] | IC50 [2] | Kd ([1]; displacement of biotinylated peptide SEQ ID NO. 1 from sTNFR1, 20 point titration, 5-parameter fit based on Morrison equation (tight binding), read-out: TR-FRET Kd^app) |
| --- | --- | --- | --- |
| CCCC[C@@H]1NC(=O)[C@@H]2CC[C@@H](C2)NC(=O)[C@H]([C@@H](C)c2c[nH]c3c(OC)cccc23)NC(=O)CN(C)C(=O)[C@H](Cc2ccc(C(N)=O)cc2)NC(=O)[C@H](Cc2ccc(S(N)(=O)=O)cc2)NC(=O)[C@](C)(CO)NC(=O)[C@H](Cc2c[nH]c3c(C#N)cccc23)NC(=O)[C@H](Cc2ccc(C(=O)O)cc2)NC(=O)[C@H](CC(N)=O)NC(=O)[C@H]2C[C@H](N(C)C)CN2C(=O)[C@H](Cc2cn(CC(=O)O)c3ccccc23)NC(=O)[C@@H]2CC[C@@H](O)CN2C(=O)[C@H](Cc2ccncc2)NC1=O [SEQ ID NO. 2] (cyclo([4Pal][Pip(5R-OH)][Trp(1-CH2COOH)][dPro(trans-4-NMe2)]N[Phe(4-COOH)][Trp(7-CN)][αMeS][Phe(4-SO2NH2)][Phe(4-CONH2)][Sar][Trp(βS-Me,7-OMe)][X1][Nle])) | 0.07 nM | 0.5 nM |  |
| CCCCC[C@@H]1NC(=O)[C@@H]2CC[C@@H](C2)NC(=O)[C@H]([C@@H](C)c2c[nH]c3c(OC)cccc23)NC(=O)CN(C)C(=O)[C@H](Cc2ccc(C(N)=O)cc2)NC(=O)[C@H](Cc2ccc(C(N)=O)cc2)NC(=O)[C@](C)(CO)NC(=O)[C@H](Cc2c[nH]c3c(C#N)cccc23)NC(=O)[C@H](Cc2ccc(C(=O)O)cc2)NC(=O)[C@H](CC(N)=O)NC(=O)[C@H]2C[C@H](O)CN2C(=O)[C@H](Cc2c[nH]c3ccccc23)NC(=O)[C@H](CCC(N)=O)NC(=O)[C@H]([C@@H](C)c2ccncc2)NC1=O [SEQ ID NO. 70] (cyclo([Ahp(2)][4Pal(3S-Me)]QW[dHyp]N[Phe(4-COOH)][Trp(7-CN)][αMeS][Phe(4-CONH2)][Phe(4-CONH2)][Sar][Trp(βS-Me,7-OMe)][X1])) | 0.12 nM | 0.9 nM |  |
| CCCCC[C@@H]1NC(=O)[C@@H]2CC[C@@H](C2)NC(=O)[C@H]([C@@H](C)c2c[nH]c3c(OC)cccc23)NC(=O)CN(C)C(=O)[C@H](Cc2ccc(C(N)=O)cc2)NC(=O)[C@H](Cc2ccc(C(N)=O)cc2)NC(=O)[C@](C)(CO)NC(=O)[C@H](Cc2c[nH]c3c(C#N)cccc23)NC(=O)[C@H](Cc2ccc(C(=O)O)cc2)NC(=O)[C@H](CC(N)=O)NC(=O)[C@H]2C[C@H](O)CN2C(=O)[C@H](Cc2c[nH]c3ccccc23)NC(=O)[C@H](CCC#N)NC(=O)[C@H]([C@@H](C)c2ccncc2)NC1=O [SEQ ID NO. 79] (cyclo([Ahp(2)][4Pal(3S-Me)][Abu(4-CN)]W[dHyp]N[Phe(4-COOH)][Trp(7-CN)][αMeS][Phe(4-CONH2)][Phe(4-CONH2)][Sar][Trp(βS-Me,7-OMe)][X1])) | 0.15 nM | 1.3 nM |  |
| COc1cccc2c([C@H](C)[C@@H]3NC(=O)CN(C)C(=O)[C@H](Cc4cccc(C(N)=O)c4)NC(=O)[C@H](Cc4ccc(C(=O)O)cc4)NC(=O)[C@](C)(CO)NC(=O)[C@H](Cc4c[nH]c5c(Cl)cccc45)NC(=O)[C@H](Cc4ccncc4)NC(=O)[C@H](CC(N)=O)NC(=O)[C@H]4C[C@H](O)CN4C(=O)[C@H](Cc4c[nH]c5ccccc45)NC(=O)[C@@H]4CC[C@@H](O)CN4C(=O)[C@H](Cc4ccncc4)NC(=O)[C@H](CCCNC(N)=O)NC(=O)[C@@H]4CC[C@@H](C4)NC3=O)c[nH]c12 [SEQ ID NO. 54] (cyclo([4Pal][Trp(7-Cl)][αMeS][Phe(4-COOH)][Phe(3-CONH2)][Sar][Trp(βS-Me,7-OMe)][X1][Cit][4Pal][Pip(5R-OH)]W[dHyp]N)) | 0.24 nM | 1.8 nM |  |
| CCCC[C@@H]1NC(=O)[C@@H]2CC[C@@H](C2)NC(=O)[C@H]([C@@H](C)c2c[nH]c3c(OC)cccc23)NC(=O)CN(C)C(=O)[C@H](Cc2ccc(C(=O)O)cc2F)NC(=O)[C@H](Cc2ccc(S(N)(=O)=O)cc2)NC(=O)[C@](C)(CO)NC(=O)[C@H](Cc2c[nH]c3c(C#N)cccc23)NC(=O)[C@H](Cc2ccc(C(=O)O)cc2F)NC(=O)[C@H](CC(N)=O)NC(=O)[C@H]2C[C@H](O)CN2C(=O)[C@H](Cc2c[nH]c3ncccc23)NC(=O)[C@@H]2CC[C@@H](O)CN2C(=O)[C@H](Cc2cncnc2)NC1=O [SEQ ID NO. 51] (cyclo(N[Phe(2-F,4-COOH)][Trp(7-CN)][αMeS][Phe(4-SO2NH2)][Phe(2-F,4-COOH)][Sar][Trp(βS-Me,7-OMe)][X1][Nle][Ala(pyrimidin-5-yl)][Pip(5R-OH)][Trp(7-aza)][dHyp])) |  | 0.4 nM | 0.05 nM |
